{"source": "patent US20250145585A1", "about": "“HETEROCYCLIC INHIBITORS OF IGF-1R FOR TREATMENT OF DISEASE” (HORIZON THERAPEUTICS IRELAND DAC, priority 2023, published 2025)"}
{"molecular_target": "T1, IGF-1R (Homo sapiens, UniProt P08069)", "T1 construct": "expressed in transfected cells", "T1 sequence (P08069 31-1367)": "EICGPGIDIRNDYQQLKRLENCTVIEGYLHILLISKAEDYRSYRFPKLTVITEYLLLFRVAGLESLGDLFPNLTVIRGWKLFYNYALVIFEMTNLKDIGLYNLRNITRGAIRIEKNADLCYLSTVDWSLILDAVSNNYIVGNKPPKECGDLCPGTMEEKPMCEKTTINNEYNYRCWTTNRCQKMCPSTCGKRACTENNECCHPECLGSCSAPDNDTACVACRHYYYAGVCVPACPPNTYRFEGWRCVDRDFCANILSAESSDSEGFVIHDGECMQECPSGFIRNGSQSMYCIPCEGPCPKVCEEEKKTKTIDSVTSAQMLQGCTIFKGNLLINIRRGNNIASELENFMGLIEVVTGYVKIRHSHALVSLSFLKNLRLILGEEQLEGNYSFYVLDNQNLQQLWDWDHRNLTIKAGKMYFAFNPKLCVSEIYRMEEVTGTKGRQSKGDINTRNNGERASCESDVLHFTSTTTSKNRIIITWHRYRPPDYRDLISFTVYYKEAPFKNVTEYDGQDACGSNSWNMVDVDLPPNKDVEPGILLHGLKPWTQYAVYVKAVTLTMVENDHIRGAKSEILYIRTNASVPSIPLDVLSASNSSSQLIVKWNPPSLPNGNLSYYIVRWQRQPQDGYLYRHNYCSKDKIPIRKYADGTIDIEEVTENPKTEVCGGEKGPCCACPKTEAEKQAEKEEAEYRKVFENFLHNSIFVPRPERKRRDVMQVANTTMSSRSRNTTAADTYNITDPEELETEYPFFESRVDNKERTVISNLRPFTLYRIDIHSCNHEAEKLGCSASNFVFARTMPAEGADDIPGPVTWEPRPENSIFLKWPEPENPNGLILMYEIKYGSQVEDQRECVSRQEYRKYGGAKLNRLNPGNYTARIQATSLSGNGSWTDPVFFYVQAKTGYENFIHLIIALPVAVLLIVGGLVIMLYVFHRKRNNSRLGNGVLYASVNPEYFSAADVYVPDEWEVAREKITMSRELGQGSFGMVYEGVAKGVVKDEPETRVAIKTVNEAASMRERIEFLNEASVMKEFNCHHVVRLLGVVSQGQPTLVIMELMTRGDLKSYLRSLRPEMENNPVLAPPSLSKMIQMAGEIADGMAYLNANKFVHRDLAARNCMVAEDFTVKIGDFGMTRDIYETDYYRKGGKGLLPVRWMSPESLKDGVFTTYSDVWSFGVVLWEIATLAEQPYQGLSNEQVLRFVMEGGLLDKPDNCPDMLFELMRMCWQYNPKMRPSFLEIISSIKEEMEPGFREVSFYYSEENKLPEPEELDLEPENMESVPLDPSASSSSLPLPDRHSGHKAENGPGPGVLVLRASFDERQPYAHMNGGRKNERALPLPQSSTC", "experiment": "Example B-2: IGF-1R Assay (PathHunter cell lines, EC80 agonist challenge, chemiluminescent detection)", "assay_type": "cell-based", "details": "PathHunter cells, compound 60 minutes at 37° C., EC80 agonist 3 hours; read-out: IC50, Biological Activity against IGF-1R (Table B2)", "experimental": "PathHunter cell lines were expanded from freezer stocks according to standard procedures. Cells were seeded in a total volume of 20 μL into white walled, 384-well microplates and incubated for the appropriate time prior to testing.\nCells are pre-incubated with compound followed by EC80 agonist challenge as follows: • R. 1. Intermediate dilution of sample stocks was performed to generate 5× sample in assay buffer. • 2. 5 μL of 5× sample was added to cells and incubated at 37° C. for 60 minutes. Vehicle concentration was 1%. • 3. 5 IL of 6× EC80 agonist in assay buffer was added to the cells and incubated at room temperature for 3 hours.\nAssay signal was generated through a single addition of 12.5 or 15 μL (50% v/v) of PathHunter Detection reagent cocktail for agonist and antagonist assays respectively, followed by a one hour incubation at room temperature. Microplates were read following signal generation with a PerkinElmer Envision™ instrument for chemilumine-scent signal detection.\nCompound activity was analyzed using CBIS data analysis suite (ChemInnovation, CA). Percentage inhibition was calculated using the following formula: % Inhibition=100%×(1−(mean RLU of test sample−mean RLU of vehicle control)/(mean RLU of EC80 control−mean RLU of vehicle control)). The activity for representative examples of the invention is shown in the following table, wherein A: IC50≤500 nM; B: 500 nM<IC50≤2 μM; C: 2 μM<IC50≤10 μM; D: IC50>10 μM.", "units": {"IC50": "nM"}}
{"compound": "CC(C)Nc1cc(CN2C(=O)N(c3ccc(C(C)(C)C#N)nc3)C(=O)C2(C)C)ccn1", "note": "[Compound 143, 2-(5-(3-((2-(isopropylamino)pyridin-4-yl)methyl)-4,4-dimethyl-2,5-dioxoimidazolidin-1-yl)pyridin-2-yl)-2-methylpropanenitrile]", "IC50": "500 to 2000"}
{"compound": "CC1(C)C(=O)N(c2ccc(C(F)(F)F)c(C#N)c2)C(=O)N1Cc1ccnc(N[C@H]2[C@@H]3COC[C@@H]32)c1", "note": "[Compound 180, 5-(3-((2-(((1R,5S,6r)-3-oxabicyclo[3.1.0]hexan-6-yl)amino)pyridin-4-yl)methyl)-4,4-dimethyl-2,5-dioxoimidazolidin-1-yl)-2-(trifluoromethyl)benzonitrile]", "IC50": "> 10000"}
{"compound": "CC1(C)C(=O)N(c2ccc(S(=O)(=O)C(F)F)cc2)C(=O)N1Cc1ccnc2c1CC(=O)N2", "note": "[Compound 63, 3-(4-((difluoromethyl)sulfonyl)phenyl)-5,5-dimethyl-1-((2-oxo-2,3-dihydro-1H-pyrrolo[2,3-b]pyridin-4-yl)methyl)imidazolidine-2,4-dione]", "IC50": "500 to 2000"}
{"compound": "C[C@@H](Nc1cc(CN2C(=O)N(c3ccc4c(c3)N(S(C)(=O)=O)CC43CCC3)C(=O)C2(C)C)ccn1)c1cccnc1", "note": "[Compound 242, (R)-5,5-dimethyl-3-(1′-(methylsulfonyl)spiro[cyclobutane-1,3′-indolin]-6′-yl)-1-((2-((1-(pyridin-3-yl)ethyl)amino)pyridin-4-yl)methyl)imidazolidine-2,4-dione]", "IC50": "≤ 500"}
{"compound": "Cn1nc(C(C)(C)C)cc1N1C(=O)N(Cc2ccnc(N[C@H]3CCOC3)c2)C(C)(C)C1=O", "note": "[Compound 261, (S)-3-(3-(tert-butyl)-1-methyl-1H-pyrazol-5-yl)-5,5-dimethyl-1-((2-((tetrahydrofuran-3-yl)amino)pyridin-4-yl)methyl)imidazolidine-2,4-dione]", "IC50": "> 10000"}
{"compound": "CC1(C)C(=O)N(c2ccc(C3(C(F)(F)F)CC3)cc2)C(=O)N1Cc1ccnc2c1CCN2", "note": "[Compound 33, 1-((2,3-dihydro-1H-pyrrolo[2,3-b]pyridin-4-yl)methyl)-5,5-dimethyl-3-(4-(1-(trifluoromethyl)cyclopropyl)phenyl) imidazolidine-2,4-dione]", "IC50": "≤ 500"}
{"compound": "CC(CF)Nc1cc(CN2C(=O)N(c3ccc(S(=O)(=O)C(F)(F)F)cc3)C(=O)C2(C)C)ccn1", "note": "(stereo not drawn) [Compound 336, 1-((2-((1-fluoropropan-2-yl)amino)pyridin-4-yl)methyl)-5,5-dimethyl-3-(4-((trifluoromethyl)sulfonyl)phenyl) imidazolidine-2,4-dione]", "IC50": "500 to 2000"}
{"compound": "CCOC(=O)N1C(=O)Cc2c(CN3C(=O)N(c4ccc(C5(C(F)(F)F)CC5)cc4)C(=O)C3(C)C)ccnc21", "note": "[Compound 78, ethyl 4-((5,5-dimethyl-2,4-dioxo-3-(4-(1-(trifluoromethyl)cyclopropyl)phenyl)imidazolidin-1-yl)methyl)-2-oxo-2,3-dihydro-1H-pyrrolo[2,3-b]pyridine-1-carboxylate]", "IC50": "≤ 500"}
{"compound": "CC1(C)C(=O)N(c2ccc(C3(C(F)(F)F)CC3)cc2)C(=O)N1Cc1ccnc(NCc2cnccn2)c1", "note": "[Compound 182, 5,5-dimethyl-1-((2-((pyrazin-2-ylmethyl)amino)pyridin-4-yl)methyl)-3-(4-(1-(trifluoromethyl)cyclopropyl)phenyl) imidazolidine-2,4-dione]", "IC50": "≤ 500"}
{"compound": "CC1(C)C(=O)N(c2ccc(C3(C(F)(F)F)CC3)cc2)C(=O)N1Cc1ccnc(N[C@H]2[C@@H]3COC[C@@H]32)c1", "note": "[Compound 148, 1-((2-(((1R,5S,6r)-3-oxabicyclo[3.1.0]hexan-6-yl)amino)pyridin-4-yl)methyl)-5,5-dimethyl-3-(4-(1-(trifluoromethyl)cyclopropyl)phenyl) imidazolidine-2,4-dione]", "IC50": "≤ 500"}
{"compound": "CC1(C)C(=O)N(c2ccc(S(=O)(=O)C(F)(F)F)cc2)C(=O)N1Cc1ccnc(NC2CCN(S(C)(=O)=O)CC2)c1", "note": "[Compound 322, 5,5-dimethyl-1-((2-((1-(methylsulfonyl)piperidin-4-yl)amino)pyridin-4-yl)methyl)-3-(4-((trifluoromethyl)sulfonyl)phenyl) imidazolidine-2,4-dione]", "IC50": "500 to 2000"}
{"compound": "CC1(C)C(=O)N(c2ccc(S(=O)(=O)C(F)(F)F)cc2)C(=O)N1Cc1ccnc(NC2CCN(S(C)(=O)=O)C2)c1", "note": "(stereo not drawn) [Compound 329, 5,5-dimethyl-1-((2-((1-(methylsulfonyl)pyrrolidin-3-yl)amino)pyridin-4-yl)methyl)-3-(4-((trifluoromethyl)sulfonyl)phenyl) imidazolidine-2,4-dione]", "IC50": "500 to 2000"}
{"compound": "Cn1cc(CNc2cc(CN3C(=O)N(c4ccc(S(=O)(=O)C(F)(F)F)cc4)C(=O)C3(C)C)ccn2)cn1", "note": "[Compound 344, 5,5-dimethyl-1-((2-(((1-methyl-1H-pyrazol-4-yl)methyl)amino)pyridin-4-yl)methyl)-3-(4-((trifluoromethyl)sulfonyl)phenyl) imidazolidine-2,4-dione]", "IC50": "≤ 500"}
{"compound": "Cn1cncc1CNc1cc(CN2C(=O)N(c3ccc(C4(C(F)(F)F)CC4)cc3)C(=O)C2(C)C)ccn1", "note": "[Compound 176, 5,5-dimethyl-1-((2-(((1-methyl-1H-imidazol-5-yl)methyl)amino)pyridin-4-yl)methyl)-3-(4-(1-(trifluoromethyl)cyclopropyl)phenyl) imidazolidine-2,4-dione]", "IC50": "≤ 500"}
{"compound": "CN1CCC(Nc2cc(CN3C(=O)N(c4ccc(S(=O)(=O)C(F)(F)F)cc4)C(=O)C3(C)C)ccn2)C1=O", "note": "(stereo not drawn) [Compound 332, 5,5-dimethyl-1-((2-((1-methyl-2-oxopyrrolidin-3-yl)amino)pyridin-4-yl)methyl)-3-(4-((trifluoromethyl)sulfonyl)phenyl) imidazolidine-2,4-dione]", "IC50": "2000 to 10000"}
{"compound": "CC1(C)C(=O)N(c2ccc3c(c2)OC(F)(F)C32CC2)C(=O)N1Cc1ccnc2c1CC(=O)N2", "note": "[Compound 70, 3-(2,2-difluoro-2H-spiro[benzofuran-3,1′-cyclopropan]-6-yl)-5,5-dimethyl-1-((2-oxo-2,3-dihydro-1H-pyrrolo[2,3-b]pyridin-4-yl)methyl)imidazolidine-2,4-dione]", "IC50": "2000 to 10000"}
{"compound": "CC(C)Nc1cc(CN2C(=O)N(c3ccc(C4(C#N)CC4)cc3)C(=O)C2(C)C)ccn1", "note": "[Compound 144, 1-(4-(3-((2-(isopropylamino)pyridin-4-yl)methyl)-4,4-dimethyl-2,5-dioxoimidazolidin-1-yl)phenyl)cyclopropane-1-carbonitrile]", "IC50": "500 to 2000"}
{"compound": "C[C@H](Nc1cc(CN2C(=O)N(c3ccc(S(=O)(=O)C(F)(F)F)cc3)C(=O)C2(C)C)ccn1)[C@H]1CCCO1", "note": "[Compound 340, 5,5-dimethyl-1-((2-(((S)-1-((R)-tetrahydrofuran-2-yl)ethyl)amino)pyridin-4-yl)methyl)-3-(4-((trifluoromethyl)sulfonyl)phenyl) imidazolidine-2,4-dione]", "IC50": "2000 to 10000"}
{"compound": "CC1(C)C(=O)N(c2ccc(S(C)(=O)=O)cc2)C(=O)N1Cc1ccnc(N[C@H]2[C@@H]3COC[C@@H]32)c1", "note": "[Compound 337, 1-((2-(((1R,SS,6r)-3-oxabicyclo[3.1.0]hexan-6-yl)amino)pyridin-4-yl)methyl)-5,5-dimethyl-3-(4-(methylsulfonyl)phenyl) imidazolidine-2,4-dione]", "IC50": "> 10000"}
{"compound": "CC1(C)C(=O)N(c2ccc(S(=O)(=O)C(F)(F)F)cc2)C(=O)N1Cc1ccnc(NC2CS(=O)(=O)C2)c1", "note": "[Compound 327, 1-((2-((1,1-dioxidothietan-3-yl)amino)pyridin-4-yl)methyl)-5,5-dimethyl-3-(4-((trifluoromethyl)sulfonyl)phenyl) imidazolidine-2,4-dione]", "IC50": "2000 to 10000"}
{"compound": "CC1C(=O)Nc2nccc(CN3C(=O)N(c4ccc(C5(C(F)(F)F)CC5)cc4)C(=O)C3(C)C)c21", "note": "(stereo not drawn) [Compound 31, 5,5-dimethyl-1-((3-methyl-2-oxo-2,3-dihydro-1H-pyrrolo[2,3-b]pyridin-4-yl)methyl)-3-(4-(1-(trifluoromethyl)cyclopropyl)phenyl) imidazolidine-2,4-dione]", "IC50": "≤ 500"}
{"compound": "CC1(C)C(=O)N(c2ccc3c(c2)N(C(=O)C2CC2)CC32CCC2)C(=O)N1Cc1ccnc(NC2CCOCC2)c1", "note": "[Compound 237, 3-(1′-(cyclopropanecarbonyl)spiro [cyclobutane-1,3′-indolin]-6′-yl)-5,5-dimethyl-1-((2-((tetrahydro-2H-pyran-4-yl)amino)pyridin-4-yl)methyl)imidazolidine-2,4-dione]", "IC50": "≤ 500"}
{"compound": "C[C@@H](CC#N)Nc1cc(CN2C(=O)N(c3ccc4c(c3)N(S(C)(=O)=O)CC43CCC3)C(=O)C2(C)C)ccn1", "note": "[Compound 221, (S)-3-((4-((5,5-dimethyl-3-(1′-(methylsulfonyl)spiro[cyclobutane-1,3′-indolin]-6′-yl)-2,4-dioxoimidazolidin-1-yl)methyl)pyridin-2-yl)amino)butanenitrile]", "IC50": "≤ 500"}
{"compound": "CN1C(=O)Cc2c(CN3C(=O)N(c4ccc(C5(C#N)CCC5)cc4)C(=O)C3(C)C)ccnc21", "note": "[Compound 65, 1-(4-(4,4-dimethyl-3-((1-methyl-2-oxo-2,3-dihydro-1H-pyrrolo[2,3-b]pyridin-4-yl)methyl)-2,5-dioxoimidazolidin-1-yl)phenyl)cyclobutane-1-carbonitrile]", "IC50": "> 10000"}
